How the values were obtained:
[1] = human, in vivo, iv; cited from earlier work

SMILES	patients experiencing bone marrow toxicity resulting in neutropenia [1]	in vivo release behaviour (fluorescence in urine)
Nc1nc(O)c2ncn(COC(CO)CO)c2n1 [Ganciclovir]	30-50%	–
O=C([O-])c1ccccc1-c1c2ccc(=O)cc-2oc2cc([O-])ccc12.[Na+].[Na+] [sodium fluorescein, Sodium fluorescein]	–	long-term constant release
